According to the METLIN SMRT retention time set (Domingo-Almenara et al. 2019):

Assay: gradient 5% acetonitrile 3 min, to 50% in 2 min, to 85% in 15 min, held 3 min, 100 µL/min
Details: column: Zorbax Extend-C18 2.1 x 50 mm; eluents: water / acetonitrile, 0.1% formic acid
Summary of the method: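 Data were gathered over 3 months by HPLC coupled to a quadrupole time-of-flight mass spectrometer, operated in positive and negative ionization mode. Mixtures of ~100 pure standards ran on a Zorbax Extend-C18 column (2.1 × 50 mm, 1.8 μm) at 100 μL/min, with water and acetonitrile each containing 0.1% formic acid and dead and dwell volumes of 40 μL and 900 μL. Retention time was read from adduct peaks picked by computer and checked manually.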

Row | Structure (SMILES) | RP-LC retention time [s]
1 | CC(C)CC(=O)Nc1c(-c2ccc(F)cc2)nc2ccccn12 | 650
2 | CCN(CC)S(=O)(=O)c1ccc2c(c1)N(CC(=O)NCc1cccc(C)c1)C(=O)C1CCCCN21 (configuration not stated) | 686
3 | CC(C)c1ccc(CNC(=O)C2CCc3nc(N4CCCC4)ncc3C2)cc1 (configuration not stated) | 648
4 | O=C(NCCN1CCOCC1)c1csc(-c2ccc(N3CCCC3)nc2)n1 | 542
5 | COc1ccc(Cl)cc1C(=O)N1CCC2(CC1)N=C(c1ccc(Br)cc1)NO2 | 959
6 | CCc1ccc(NC(=O)N2CCc3nc(-c4ccccc4)ncc3C2)cc1 | 1010
7 | Cc1ccc(NC(=O)N2CCC3(CC2)NC(=O)c2ccccc2O3)cc1C | 812
8 | COc1ccc(S(=O)(=O)CCC(=O)N2CCCC2c2nc(-c3ccc(Cl)cc3)no2)cc1 (configuration not stated) | 1000
9 | O=C(c1cn2ccccc2n1)N1CCN(c2ccccc2Cl)CC1 | 854
10 | CC1Oc2ccc(S(=O)(=O)N3CCC(C(=O)NCc4ccc(F)cc4)CC3)cc2NC1=O (configuration not stated) | 812
11 | COc1ccccc1N1CCN(CCNC(=O)Cc2ccc(Cl)cc2)CC1 | 572
12 | O=S(=O)(c1ccc2c(c1)CCC2)N1CC[C@@H]2COCCN(Cc3cccnc3)[C@@H]2C1 | 687
13 | O=S(=O)(c1ccc2nc(N3CCN(c4ccccc4F)CC3)ccc2c1)N1CCOCC1 | 939
14 | CN(C)C(CNC(=O)c1ccc(Br)o1)c1cn(C)c2ccccc12 (configuration not stated) | 578
15 | COc1nccnc1N1CCC(NC(=O)c2ccc3cc[nH]c3c2)C1 (configuration not stated) | 633
16 | Cc1ccc(S(=O)(=O)N2CCC(CCNC(=O)NCC(C)C)CC2)cc1 | 877
17 | Cn1cnc2c(C(=O)Nc3ccc(Cl)cc3)nn(-c3ccccc3)c2c1=O | 954
18 | CC1CCCN(c2cc(SCC(=O)Nc3ccc(F)cc3)ncn2)C1 (configuration not stated) | 955
19 | COc1cc(NC(=O)[C@@H]2[C@H](c3cc(OC)c(OC)c(OC)c3)c3cc4c(cc3[C@H](O)[C@H]2CO)OCO4)cc(OC)c1 | 767
20 | CC1CCN(CCNC(=O)c2cccc3c2SCCC3=O)CC1 | 588
21 | COC(=O)c1c(NC(=O)c2cnn(-c3ccccc3)c2C)sc2c1CCN(C(C)=O)C2 | 812
22 | O=C(Nc1ccc(F)cc1)N1CCCC1c1nc(-c2ccc(F)cc2F)no1 (configuration not stated) | 934

Row | Structure (SMILES) | RP-LC retention time [s]
23 | CC(C)CN1CCn2cc(S(=O)(=O)N3CCN(c4ccccc4)CC3)cc2C1=O | 921
24 | CCOC(=O)c1cccc(NC(=O)c2cc(C)nn2-c2ccccc2)c1 | 936
25 | Cc1cc2nn(CC(=O)N3CCC(C)CC3)c(=O)n2c(Nc2ccc(C)c(C)c2)n1 | 941
26 | Cc1cc(C(=O)Nc2ccc3nc(N4CCN(C)CC4)sc3c2)on1 | 544
27 | CCc1cccc(NC(=O)N2CCc3cn(CC)c4cccc(c34)C2)c1 | 1050
28 | Cc1nnc(-c2cccn2CC(=O)NCc2cccc(Br)c2)o1 | 767
29 | CCCCN(CCCC)CCCOC(=O)c1ccc(N)cc1 | 738
30 | Cc1ccc(CN2CC(=O)N(c3ccccc3)[C@@H]3CS(=O)(=O)C[C@@H]32)cc1 | 800
31 | COc1ccc(NC(=O)Cn2c(C)nc3c(sc4nc(-c5ccccc5)ccc43)c2=O)cc1OC | 938
32 | Cc1cccc(NC(=O)N2CC(Cc3nncn3C(C)C)C2)c1C | 627
33 | Cc1ccc(CN2C(=O)CN(S(C)(=O)=O)CC2(C)C(=O)NCc2ccc(F)cc2)cc1 (configuration not stated) | 836
34 | O=C(NC1CC(=O)N(C2CC2)C1)c1cnc2ccccc2n1 (configuration not stated) | 594
35 | Cc1cc2nc(C(F)(F)F)c(=O)n(C(C)C(=O)NCc3ccco3)c2cc1C (configuration not stated) | 756
36 | Cc1ccc(-c2ccc(-n3nc(C)c(S(=O)(=O)NC4CC4)c3C)nn2)cc1 | 944
37 | Cc1ccc(C(C)NC(=O)c2ccc3c(c2)nc2n3CCN(C(C)C)C2=O)c(C)c1 (configuration not stated) | 786
38 | CN1CCc2c([nH]c3ccccc23)C12CCN(S(=O)(=O)c1cccnc1)CC2 | 585
39 | CCOC(=O)C1=C(CN2CCN(c3ccccn3)CC2)NC(=O)NC1c1ccc(OC)cc1 (configuration not stated) | 612
40 | Cn1c(=O)sc2cc(S(=O)(=O)N3CCC(C(=O)NCc4ccc5c(c4)OCO5)CC3)ccc21 | 784
41 | NC(=O)C1CCN(C(=O)NC2CCCCC2)CC1 | 584
42 | CCOC(=O)c1noc2ncnc(NCCc3ccc(OCC)cc3)c12 | 1060
43 | Cc1ccc2c(c1)cc(S(=O)(=O)c1ccccc1)c(=O)n2CC(=O)NCCC(C)C | 938
44 | COCCN1CCC2(CC1)CN(Cc1ccc(OC)c(C)c1)Cc1ccccc1O2 | 598

Row | Structure (SMILES) | RP-LC retention time [s]
45 | CCNC(=O)C1CCCN(c2nc3ncn(CC(=O)NC4CCCC4)c(=O)c3s2)C1 (configuration not stated) | 637
46 | CCc1ccc(OCc2ccc(C(=O)Nc3nc(-c4ccccc4)cs3)o2)cc1 | 1270
47 | Cc1sc(NC(=O)c2cccc(F)c2)nc1-c1ccccc1 | 1150
48 | COc1ccc(-c2nc(-c3ccc4ncn(C(C)C)c4c3)no2)c(C)c1 | 881
49 | COc1ccc(-c2nnc(-c3cccnc3N3CCN(c4ccccc4C)CC3)o2)cc1 | 1280
50 | COc1cc(F)ccc1-c1ccnc2nc(C3CCC3)nn12 | 864
51 | O=C(NCc1cccs1)C1CCN(CCc2c[nH]c3ncccc23)CC1 | 563
52 | O=c1ccn(-c2cccc(F)c2)nc1-c1nc(-c2ccccc2Br)no1 | 905
53 | Cc1ccc2ncn(C3CCN(S(=O)(=O)c4ccccc4F)CC3)c(=O)c2c1 | 940
54 | Cc1ccc2c(Nc3cccc(C(C)C)c3)c(C(=O)N3CCCC(C)C3)cnc2n1 (configuration not stated) | 722
55 | CS(=O)(=O)N1CCCc2ccc(NS(=O)(=O)CCN3C(=O)CCCC3=O)cc21 | 622
56 | O=C(CCCOc1ccc(Cl)cc1Cl)Nc1nc(-c2ccccc2)cs1 | 1210
57 | Cc1nc(Cn2cccc2C(=O)Nc2ccc(F)cc2F)no1 | 793
58 | O=C(CC(c1ccccc1)c1ccccc1)NCC(O)c1cccs1 (configuration not stated) | 809
59 | Cc1ccc(-n2nc(N3CCCN(S(=O)(=O)c4ccc(Cl)cc4)CC3)ccc2=O)cc1 | 935
60 | Cc1noc(C2CCCCN2Cc2nc(-c3cccnc3)no2)n1 (configuration not stated) | 656
61 | CCOc1ccccc1CNC(=O)CN1C(=O)CSc2cccn2-c2ccccc21 | 962
62 | O=C(c1nnc(-c2ccc(S(=O)(=O)N3CCCCC3)cc2)o1)N1CCCCC1 | 956
63 | O=C(NCc1ccccn1)C1CCN(C(=O)c2ncn3c2COC(c2ccc(F)cc2)C3)CC1 (configuration not stated) | 622
64 | O=C(Nc1cccc(Cl)c1)Nc1ncc(CCNc2ncnc3ccsc23)s1 | 721
65 | CCC(=O)N1CCc2cc(-c3ccc(C(=O)N4CCN(c5ccccn5)CC4)cc3)ccc21 | 653
66 | Cc1ccc(NS(=O)(=O)c2ccc(-c3c(C)noc3C)cc2)cc1F | 964

Row | Structure (SMILES) | RP-LC retention time [s]
67 | COc1ccc(-c2cn3cccnc3n2)cc1NC(=O)c1ccc(Cl)cc1 | 743
68 | CC(=O)N1CCC(C(=O)N2CCN(S(=O)(=O)c3ccc4c(c3)sc(=O)n4C(C)C)CC2)CC1 | 727
69 | CCOc1ncccc1CNC(=O)CC1CCCC1 | 812
70 | Cn1nc(CNC(=O)c2cccc(NC(=O)c3ccco3)c2)c2ccccc21 | 736
71 | COc1ccc(-c2noc(C3CC(=O)N(c4ccc(C)c(C)c4)C3)n2)c(OC)c1 (configuration not stated) | 932
72 | Cc1cccc2nc(-c3ccc(O)cc3)c(Nc3ccc4c(c3)OCCO4)n12 | 646
73 | CCc1noc(NC(C)=O)c1-c1ccc(C)c(S(=O)(=O)Nc2ccc(OC)cc2OC)c1 | 794
74 | CCn1c(C(=O)NCCCN2CCOCC2)cc2c(=O)oc3ccccc3c21 | 612
75 | O=C(Nc1cccc(-c2nc3ccccc3o2)c1)c1ccc(F)cc1F | 994
76 | Cc1nnc(SCC(=O)N2c3ccccc3CCc3ccccc32)s1 | 897
77 | CCCNc1cc(N2CCCC(CCC(=O)Nc3ccc(OC)cc3OC)C2)ncn1 (configuration not stated) | 707
78 | C=CCN1C(=O)COc2ccc(-c3csc(NC(=O)/C=C/c4ccc(OCC)c(OC)c4)n3)cc21 | 1050
79 | O=C(Cc1ccc(F)cc1)NCc1ccc(-c2nc(C3CC3)no2)s1 | 885
80 | CCn1nccc1-c1csc(S(=O)(=O)N2CCCC2)c1 | 864
81 | CCC(C)NC(=O)C1(c2ccc(NS(C)(=O)=O)cc2)CCCCC1 (configuration not stated) | 736
82 | Cc1cccc(Cl)c1NC(=O)Cn1ncc2c(N3CCN(c4ccccn4)CC3)ncnc21 | 593
83 | COc1cc([C@@H]2c3cc4c(cc3[C@H](O)[C@@H](CO)[C@@H]2C(=O)NCc2cccc(C(F)(F)F)c2)OCO4)cc(OC)c1OC | 783
84 | Cn1cc(C2=CCN(S(=O)(=O)c3ccccc3)CC2)c2cccnc21 | 927
85 | Oc1cccc(-c2nc3ncccn3c2Nc2ccc(Cl)cc2)c1 | 710
86 | Cc1cccc(C)c1NC(=O)Cn1nc(N2CCOCC2)c2ccccc2c1=O | 744
87 | CN1CCN(C(=O)c2cn(-c3cc(N4CCSCC4)ncn3)cn2)CC1 | 593
